From the NIST ThermoML archive (doi:10.1016/j.jct.2017.03.026)
“And” between values parts separate entries of the source, which are not always exact repeats. Identical values can stand only once.

Test: molar heat capacity at constant pressure
Conditions: 101.33 kPa, Crystal, Small (less than 1 g) adiabatic calorimetry

O.O.O.O.O.O=S(=O)([O-])[O-].[Cu+2] [copper(II) sulfate pentahydrate]
Conditions	molar heat capacity at constant pressure
37.11 K	32.81 J/K/mol
37.27 K	32.75 J/K/mol
37.57 K	33.3 J/K/mol
37.61 K	33.52 J/K/mol
38.25 K	34.37 J/K/mol
38.34 K	34.7 J/K/mol
38.38 K	34.84 J/K/mol
38.55 K	34.93 J/K/mol
39.23 K	35.95 J/K/mol
39.54 K	36.51 J/K/mol
40 K	37.15 J/K/mol
40.22 K	37.51 J/K/mol
40.31 K	37.77 J/K/mol
40.35 K	37.93 J/K/mol
41.2 K	39.02 J/K/mol
42.19 K	40.35 J/K/mol
42.29 K	40.63 J/K/mol
42.32 K	41.04 J/K/mol
43.17 K	41.93 J/K/mol
44.16 K	43.29 J/K/mol
44.27 K	43.38 J/K/mol
44.29 K	44.04 J/K/mol
45 K	44.39 J/K/mol
45.14 K	44.61 J/K/mol
46.12 K	45.87 J/K/mol
46.25 K	46.08 J/K/mol
46.27 K	47.03 J/K/mol
47.11 K	47.24 J/K/mol
48.1 K	48.62 J/K/mol
48.23 K	48.95 J/K/mol
48.24 K	49.93 J/K/mol
49.08 K	50.18 J/K/mol
50 K	51.93 J/K/mol
50.07 K	52.01 J/K/mol
50.21 K	52.31 J/K/mol
50.22 K	52.88 J/K/mol
51.06 K	53.89 J/K/mol
52.04 K	55.62 J/K/mol
52.19 K	55.66 J/K/mol and 55.74 J/K/mol
53.03 K	57.23 J/K/mol
54.02 K	58.82 J/K/mol
54.17 K	58.74 J/K/mol
54.18 K	58.73 J/K/mol
55 K	60.26 J/K/mol and 60.19 J/K/mol
55.99 K	61.63 J/K/mol
56.15 K	61.82 J/K/mol
56.16 K	61.65 J/K/mol
56.98 K	62.69 J/K/mol
57.97 K	63.82 J/K/mol
58.14 K	64.89 J/K/mol
58.15 K	64.47 J/K/mol
58.96 K	65.23 J/K/mol
59.95 K	66.92 J/K/mol
60 K	66.98 J/K/mol
60.12 K	67.94 J/K/mol
60.14 K	67.3 J/K/mol
60.93 K	68.42 J/K/mol
61.92 K	69.94 J/K/mol
62.11 K	70.89 J/K/mol
62.13 K	70.09 J/K/mol
62.92 K	71.4 J/K/mol
63.91 K	72.71 J/K/mol
64.1 K	73.66 J/K/mol
64.13 K	72.85 J/K/mol
64.9 K	74 J/K/mol
65 K	74.12 J/K/mol
65.89 K	75.34 J/K/mol
66.1 K	76.33 J/K/mol
66.12 K	75.65 J/K/mol
66.89 K	76.71 J/K/mol
67.88 K	78.07 J/K/mol
68.09 K	78.22 J/K/mol and 78.9 J/K/mol
68.88 K	79.31 J/K/mol
69.87 K	80.54 J/K/mol
70 K	80.85 J/K/mol and 80.84 J/K/mol
70.08 K	81.47 J/K/mol
71.87 K	83.38 J/K/mol
72.45 K	84.21 J/K/mol
72.58 K	84.91 J/K/mol
74.88 K	87.18 J/K/mol
75 K	87.24 J/K/mol
75.45 K	87.98 J/K/mol
75.59 K	88.72 J/K/mol
77.89 K	90.83 J/K/mol
77.95 K	91.36 J/K/mol
78.48 K	91.71 J/K/mol
79.11 K	92.21 J/K/mol
79.15 K	92.84 J/K/mol
79.36 K	93.03 J/K/mol
80 K	93.33 J/K/mol
80.16 K	93.95 J/K/mol
80.92 K	94.52 J/K/mol
81.18 K	95.24 J/K/mol
81.51 K	95.36 J/K/mol
82.2 K	96.42 J/K/mol
82.48 K	96.2 J/K/mol
82.91 K	97.32 J/K/mol
83.22 K	97.59 J/K/mol
84.24 K	98.9 J/K/mol
85 K	99.12 J/K/mol
85.26 K	100.17 J/K/mol
85.52 K	99.69 J/K/mol
85.95 K	100.9 J/K/mol
86.12 K	100.4 J/K/mol
86.28 K	101.27 J/K/mol
87.26 K	101.63 J/K/mol
87.3 K	102.49 J/K/mol
88.08 K	103.41 J/K/mol
88.28 K	102.83 J/K/mol
88.33 K	103.67 J/K/mol
88.57 K	103.19 J/K/mol
89 K	104.46 J/K/mol
89.31 K	103.96 J/K/mol
89.36 K	104.73 J/K/mol
89.57 K	104.25 J/K/mol
90 K	104.7 J/K/mol
90.33 K	105.21 J/K/mol
90.39 K	105.94 J/K/mol
90.76 K	106.39 J/K/mol
91.36 K	106.32 J/K/mol
91.43 K	107.16 J/K/mol
91.62 K	106.68 J/K/mol
91.84 K	106.75 J/K/mol
92.05 K	107.96 J/K/mol
92.39 K	107.49 J/K/mol
92.47 K	108.25 J/K/mol
93.36 K	109.28 J/K/mol
93.42 K	108.59 J/K/mol
93.5 K	109.47 J/K/mol
93.89 K	109.02 J/K/mol
94.46 K	109.82 J/K/mol
94.55 K	110.67 J/K/mol
94.68 K	110.09 J/K/mol
95 K	110.3 J/K/mol
95.12 K	111.38 J/K/mol
95.49 K	110.97 J/K/mol
95.59 K	111.73 J/K/mol
95.94 K	111.25 J/K/mol
95.97 K	112.11 J/K/mol
96.53 K	111.9 J/K/mol
96.63 K	112.87 J/K/mol
97.56 K	113.1 J/K/mol
97.68 K	113.95 J/K/mol
97.74 K	113.41 J/K/mol
97.98 K	113.44 J/K/mol
98.19 K	114.68 J/K/mol
98.58 K	114.96 J/K/mol
98.6 K	114.41 J/K/mol
98.72 K	115.17 J/K/mol
99.65 K	115.37 J/K/mol
99.77 K	116.31 J/K/mol
100 K	115.7 J/K/mol
100.03 K	115.65 J/K/mol
100.69 K	116.49 J/K/mol
100.81 K	117.42 J/K/mol
100.82 K	116.62 J/K/mol
101.2 K	117.71 J/K/mol
101.27 K	117.92 J/K/mol
